The values that follow come from ChEMBL document CHEMBL1201862, “PubChem BioAssay data set” (2004).

Each structure is given as a SMILES string.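 Step 1: Grow cells in 96-well plates. Step 2: Expose to compound for 48 hours at 5 concentrations. Step 3: Interpolate endpoints linearly; if unreached, use highest concentration. GI50 marks 50% less growth.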 Calls of active or inactive are those of the source. Cut-off read from the data, not from the text of the source: active = GI50 up to about 1.1 µM and inactive = higher.

Some test systems named below: UO-31; SF-268; NCI/ADR-RES; SN12C; TK-10; EKVX; HCC 2998; OVCAR-8; Hs-578T; BT-549; CAKI-1; RPMI-8226; DU-145; T47D; HOP-92; NCI-H522; SW-620; OVCAR-4; HL-60.
What all share (test): growth of human tumour cells (NCI), 48 h

As to `O=C1/C(=C\c2cccc(Oc3ccccc3)c2)S(=O)(=O)C(c2ccccc2)N1c1cccc(Cl)c1` (configuration not stated), the GI50 is 34.7 µM (inactive) in the experiment with UO-31; 39.2 µM (inactive) in the experiment on SF-268; 35.4 µM (inactive) in the experiment on NCI/ADR-RES; 54.8 µM (inactive) in the experiment on SN12C; > 100 µM (inactive) in the experiment with TK-10; 51.1 µM (inactive) in the experiment with EKVX. Further, the GI50 was > 100 µM (inactive) in the experiment with HCC 2998; 25.2 µM (inactive) in the experiment with OVCAR-8; 65.5 µM (inactive) in the experiment with Hs-578T; 45.8 µM (inactive) in the experiment on BT-549; 78.2 µM (inactive) with CAKI-1; 25.9 µM (inactive) in the experiment on RPMI-8226. Also, the GI50 with DU-145 is 65.5 µM (inactive); in the experiment on T47D it was 46.8 µM (inactive); in the experiment with HOP-92 it was 27.7 µM (inactive); in the experiment with NCI-H522 it was 26.8 µM (inactive); in the experiment on SW-620, 25.1 µM (inactive); in the experiment on OVCAR-4 it was 98.9 µM (inactive).

Turning to `CC(C)(CC(O)C#N)/[N+]([O-])=[N+](\[O-])C(C)(C)CC(O)C#N` (configuration not stated), the GI50 in the experiment with UO-31 is 26.9 µM (inactive); with SF-268, 23.4 µM (inactive); in the experiment with NCI/ADR-RES it was 38.2 µM (inactive); with SN12C it was 19.3 µM (inactive); in the experiment with TK-10, 26.7 µM (inactive); with EKVX it was 32.6 µM (inactive). In addition, the GI50 with HCC 2998 was 17.2 µM (inactive); in the experiment on OVCAR-8, 32.3 µM (inactive); in the experiment with Hs-578T it was 12.2 µM (inactive); with BT-549 it was 20.6 µM (inactive); in the experiment with CAKI-1 it was 10.9 µM (inactive); in the experiment with RPMI-8226, 19.4 µM (inactive). Also, the GI50 with DU-145 is 30.5 µM (inactive); in the experiment on T47D, 27.5 µM (inactive); in the experiment with HOP-92 it was 18.2 µM (inactive); in the experiment on NCI-H522 it was 13.8 µM (inactive); in the experiment with SW-620 it was 12 µM (inactive); in the experiment on OVCAR-4 it was 24.1 µM (inactive).

Turning to `c1csc(-c2cc(-c3ccsc3)cs2)c1`, the GI50 is 78.2 µM (inactive) in the experiment with UO-31; > 100 µM (inactive) in the experiment with SF-268; > 100 µM (inactive) in the experiment on NCI/ADR-RES; > 100 µM (inactive) in the experiment with SN12C; > 100 µM (inactive) in the experiment on TK-10; 52.7 µM (inactive) in the experiment with EKVX. The GI50 in the experiment with HCC 2998 was > 100 µM (inactive); with HL-60, 74.1 µM (inactive); with Hs-578T, 21 µM (inactive); in the experiment with BT-549, > 100 µM (inactive); in the experiment with CAKI-1, > 100 µM (inactive); in the experiment on RPMI-8226, > 100 µM (inactive). Moreover, the GI50 was > 100 µM (inactive) with DU-145; > 100 µM (inactive) with T47D; > 100 µM (inactive) in the experiment with HOP-92; > 100 µM (inactive) in the experiment with SW-620; 40.6 µM (inactive) in the experiment with OVCAR-4.

As to `CCOC(=O)c1cc2c3c(c(C(C)=O)c(OC)c2[nH]1)N(C(=O)CC)CC3`, the GI50 in the experiment on UO-31 was 12.7 µM (inactive); in the experiment with SF-268, 16.4 µM (inactive); in the experiment on NCI/ADR-RES it was 13.4 µM (inactive); in the experiment on SN12C it was 20.9 µM (inactive); in the experiment on EKVX, 11.4 µM (inactive); in the experiment on HCC 2998, 23.4 µM (inactive). The GI50 with OVCAR-8 is 19.8 µM (inactive); in the experiment on HL-60, 6.4 µM (inactive); with Hs-578T it was 19.4 µM (inactive); with BT-549, 17.3 µM (inactive); with CAKI-1, 14.9 µM (inactive); in the experiment on RPMI-8226 it was 5.13 µM (inactive). Further, the GI50 with DU-145 is 15.6 µM (inactive); in the experiment on T47D, 4.93 µM (inactive); in the experiment on HOP-92, 13.5 µM (inactive); with SW-620, 24.9 µM (inactive); in the experiment with OVCAR-4, 21.5 µM (inactive).

With `C=CCSC1=N/C(=C\c2cccs2)C(=O)N1CC=C`, the GI50 in the experiment on UO-31 is 37.4 µM (inactive); with SF-268, > 100 µM (inactive); with NCI/ADR-RES it was 75.2 µM (inactive); in the experiment with SN12C it was 53.1 µM (inactive); with TK-10, > 100 µM (inactive); in the experiment on EKVX, 19.2 µM (inactive). For the same compound, the GI50 was 58.9 µM (inactive) in the experiment on HCC 2998; 44.6 µM (inactive) with OVCAR-8; > 100 µM (inactive) in the experiment on Hs-578T; 44.4 µM (inactive) in the experiment with BT-549; > 100 µM (inactive) with CAKI-1; 21.9 µM (inactive) in the experiment on RPMI-8226. In addition, the GI50 in the experiment on DU-145 is 79.3 µM (inactive); in the experiment with T47D, 15.4 µM (inactive); in the experiment on HOP-92 it was 12.9 µM (inactive); in the experiment on NCI-H522 it was 49.4 µM (inactive); in the experiment on SW-620, 82.2 µM (inactive); in the experiment with OVCAR-4 it was 38.6 µM (inactive).

`CC(C)Nc1[nH]c(C(=O)c2ccccc2)c(N)c1C(=S)Nc1ccccc1`: the GI50 in the experiment on UO-31 is 77.1 µM (inactive); with SF-268, 67.8 µM (inactive); in the experiment on NCI/ADR-RES it was > 100 µM (inactive); in the experiment on SN12C it was > 100 µM (inactive); in the experiment on TK-10 it was 57.1 µM (inactive); with EKVX it was > 100 µM (inactive). Moreover, the GI50 in the experiment with HCC 2998 was 21.8 µM (inactive); in the experiment on OVCAR-8, 84.7 µM (inactive); with HL-60, > 100 µM (inactive); with Hs-578T, 86.1 µM (inactive); with BT-549, > 100 µM (inactive); in the experiment with CAKI-1, > 100 µM (inactive). Further, the GI50 with DU-145 is > 100 µM (inactive); in the experiment on T47D, 69.8 µM (inactive); with HOP-92, > 100 µM (inactive); with NCI-H522, 63.8 µM (inactive); in the experiment with SW-620 it was 47 µM (inactive); in the experiment on OVCAR-4, 71.9 µM (inactive).

Consider `O=C1C(CN2CCCCC2)CCC1CN1CCCCC1` (configuration not stated), for which the GI50 in the experiment with UO-31 is 15 µM (inactive); in the experiment on SF-268, 49.8 µM (inactive); with NCI/ADR-RES, 37.4 µM (inactive); with SN12C, 30.4 µM (inactive); in the experiment on TK-10 it was 17.8 µM (inactive); with EKVX, > 100 µM (inactive). Also, the GI50 with HCC 2998 was > 44.7 µM (inactive); with OVCAR-8, 26.8 µM (inactive); in the experiment with HL-60, 1.5 µM (inactive); with Hs-578T it was > 51.3 µM (inactive); in the experiment with BT-549 it was 19.1 µM (inactive); in the experiment on CAKI-1, 9.48 µM (inactive). For the same compound, the GI50 was 9.91 µM (inactive) with RPMI-8226; > 88.5 µM (inactive) with DU-145; 13.5 µM (inactive) in the experiment on T47D; 23.2 µM (inactive) in the experiment on HOP-92; 5.35 µM (inactive) with NCI-H522; 6.37 µM (inactive) with SW-620.

`Cc1ccc(NC(=O)/C(Cc2cc(=O)oc3cc(O)ccc23)=N\NC(C)(C)C)cc1C`: the GI50 in the experiment on UO-31 was > 100 µM (inactive); in the experiment on SF-268, > 100 µM (inactive); in the experiment with NCI/ADR-RES, > 100 µM (inactive); with SN12C, > 100 µM (inactive); in the experiment with HCC 2998, 29.4 µM (inactive); in the experiment on OVCAR-8, > 100 µM (inactive). Further, the GI50 in the experiment on HL-60, in the experiment on Hs-578T, in the experiment with BT-549, with CAKI-1, in the experiment with RPMI-8226 and in the experiment with DU-145 was > 100 µM (inactive) each time. The GI50 in the experiment on T47D was > 100 µM (inactive); with HOP-92 it was > 100 µM (inactive); in the experiment with SW-620 it was > 100 µM (inactive); in the experiment with OVCAR-4, 68.9 µM (inactive).

For the compound `CCN(CC)c1ccc(/C=c2\nc(-c3ccccc3)n3c2nc2ccccc23)cc1`, the GI50 was 13.5 µM (inactive) with UO-31; 26.5 µM (inactive) in the experiment with SF-268; 3.98 µM (inactive) in the experiment with NCI/ADR-RES; 16.8 µM (inactive) with SN12C; 17 µM (inactive) with TK-10; 1.67 µM (inactive) in the experiment with EKVX. Also, the GI50 in the experiment on HCC 2998 is 2.72 µM (inactive); in the experiment with OVCAR-8 it was 9.79 µM (inactive); in the experiment with Hs-578T, 24.4 µM (inactive); with BT-549, 16.9 µM (inactive); in the experiment with CAKI-1, 0.885 µM (active); in the experiment on RPMI-8226, 1.48 µM (inactive). Besides, the GI50 in the experiment on DU-145 is 26.8 µM (inactive); in the experiment with T47D, 0.0256 µM (active); in the experiment on HOP-92, 68.7 µM (inactive); with SW-620, 4.7 µM (inactive); in the experiment on OVCAR-4, 3.17 µM (inactive).

Regarding `COC(=O)[C@]1(C)[C@H]2C[C@H]3O[C@H]4[C@H](O)[C@@H](O)OC(CC(O)C(C5=CC(=O)OC5)C(C5=CC(=O)OC5)C(O)CC56CCCCC7[C@@H](C)[C@H](C[C@H]8[C@](C)(C(=O)OC)[C@H](O)CC[C@]78C)O[C@H]([C@@H](O)[C@H](O)O5)[C@H]6O)(CCCCC([C@@H]3C)[C@]2(C)CC[C@@H]1O)[C@H]4O` (some centres not stated), the GI50 in the experiment on UO-31 is 0.057 µM (active); in the experiment on SF-268, < 0.0272 µM (active); in the experiment with NCI/ADR-RES, 0.0973 µM (active); in the experiment with SN12C, < 0.021 µM (active); in the experiment on TK-10 it was < 0.0391 µM (active); in the experiment on EKVX, 0.0295 µM (active). The GI50 with HCC 2998 was 0.655 µM (active); in the experiment with OVCAR-8, 0.188 µM (active); in the experiment with HL-60, 0.0513 µM (active); in the experiment on Hs-578T, < 0.0251 µM (active); in the experiment on BT-549, 0.0625 µM (active); in the experiment on CAKI-1, 0.0488 µM (active). For the same compound, the GI50 is 0.0628 µM (active) in the experiment with DU-145; 0.299 µM (active) in the experiment with T47D; 0.281 µM (active) with HOP-92; < 0.01 µM (active) in the experiment on NCI-H522; 0.168 µM (active) with SW-620; 0.147 µM (active) in the experiment on OVCAR-4.

Consider `O=C1Nc2cc([N+](=O)[O-])ccc2N/C1=C/C(=O)c1ccc(Cl)cc1`, for which the GI50 with UO-31 was 25.1 µM (inactive); with SF-268 it was 11.7 µM (inactive); in the experiment with NCI/ADR-RES it was 7.71 µM (inactive); in the experiment on TK-10 it was 3.9 µM (inactive); in the experiment on EKVX, 15.7 µM (inactive); in the experiment with HCC 2998 it was 23.6 µM (inactive). In addition, the GI50 was 8 µM (inactive) in the experiment on OVCAR-8; 19.8 µM (inactive) in the experiment with HL-60; 11.5 µM (inactive) in the experiment on Hs-578T; 5.27 µM (inactive) in the experiment on BT-549; 17.6 µM (inactive) in the experiment on CAKI-1; 10.9 µM (inactive) with RPMI-8226. Besides, the GI50 in the experiment on DU-145 is 6.71 µM (inactive); in the experiment with T47D, 13.5 µM (inactive); with HOP-92, 16 µM (inactive); with SW-620, 13.9 µM (inactive); with OVCAR-4, 20.4 µM (inactive).
